Data taken from ChEMBL document CHEMBL1147827, “A pyrimidine-pyrazolone nucleoside chimera with potent in vitro anti-orthopoxvirus activity” (Bioorg Med Chem Lett, 2006).

Test system: Vaccinia virus
Experiment: Antiviral activity against Vaccinia virus Copenhagen in HFF cells assessed as reduction in cytopathogenicity
Type: functional, organism-based
Conditions: Orthopoxvirus vaccinia

With `CC(=O)OC[C@H]1O[C@@H](n2cc(/C=C3\C(=O)N(c4ccccc4)N=C3C)c(=O)[nH]c2=O)C[C@@H]1OC(C)=O` the EC50 was 32 µM.
